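Exposure lasted 48 hours, with cells grown in 96-well plates and compounds tested at five concentrations. The concentration for 50% growth inhibition is given as GI50.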 Active and inactive are the calls of the source. Cut-off read from the data, not from the text of the source: active = GI50 up to about 1.1 µM and inactive = higher.
Experiments:
Assay in all cases: NCI-60 cell line screen, 48 h
MCF7 = system: MCF7
UO-31 = system: UO-31
DU-145 = system: DU-145
SW-620 = system: SW-620
NCI-H226 = system: NCI-H226
HCT-15 = system: HCT-15
A549 = system: A549
SK-MEL-5 = system: SK-MEL-5
CAKI-1 = system: CAKI-1
BT-549 = system: BT-549
HOP-92 = system: HOP-92
OVCAR-5 = system: OVCAR-5
SR = system: SR
M14 = system: M14
SF-268 = system: SF-268
OVCAR-8 = system: OVCAR-8
U-251 = system: U-251
MDA-MB-231 = system: MDA-MB-231
OVCAR-4 = system: OVCAR-4
UACC-257 = system: UACC-257
HOP-62 = system: HOP-62
LOX IMVI = system: LOX IMVI
HCT-116 = system: HCT-116
ACHN = system: ACHN
T47D = system: T47D
OVCAR-3 = system: OVCAR-3
NCI-H23 = system: NCI-H23
RPMI-8226 = system: RPMI-8226
K562 = system: K562
SF-295 = system: SF-295
HT-29 = system: HT-29
RXF 393 = system: RXF 393
NCI-H522 = system: NCI-H522
HL-60 = system: HL-60
SK-MEL-28 = system: SK-MEL-28
SN12C = system: SN12C
786-0 = system: 786-0
MDA-N = system: MDA-N
A498 = system: A498
EKVX = system: EKVX
NCI/ADR-RES = system: NCI/ADR-RES
COLO 205 = system: COLO 205
MOLT-4 = system: MOLT-4
KM12 = system: KM12
Malme-3M = system: Malme-3M
PC-3 = system: PC-3
TK-10 = system: TK-10
MDA-MB-435 = system: MDA-MB-435
SK-OV-3 = system: SK-OV-3
IGROV-1 = system: IGROV-1
HCC 2998 = system: HCC 2998
SK-MEL-2 = system: SK-MEL-2
SNB-19 = system: SNB-19
UACC-62 = system: UACC-62
SF-539 = system: SF-539
NCI-H460 = system: NCI-H460
CCRF-CEM = system: CCRF-CEM

## CN(C(=O)Cc1ccc(Cl)c(Cl)c1)[C@@H]1CCCC[C@H]1[N+]1(C)CC=CC1
MCF7
  GI50: > 100 µM (inactive)
UO-31
  GI50: > 100 µM (inactive)
DU-145
  GI50: > 100 µM (inactive)
SW-620
  GI50: > 100 µM (inactive)
NCI-H226
  GI50: > 100 µM (inactive)
HCT-15
  GI50: > 100 µM
A549
  GI50: > 100 µM (inactive)
SK-MEL-5
  GI50: > 100 µM (inactive)
CAKI-1
  GI50: > 100 µM (inactive)
BT-549
  GI50: > 100 µM (inactive)
HOP-92
  GI50: > 100 µM (inactive)
OVCAR-5
  GI50: > 100 µM (inactive)
SR
  GI50: > 100 µM (inactive)
M14
  GI50: > 100 µM (inactive)
SF-268
  GI50: > 100 µM (inactive)
OVCAR-8
  GI50: > 100 µM (inactive)
U-251
  GI50: > 100 µM (inactive)
MDA-MB-231
  GI50: > 100 µM (inactive)
OVCAR-4
  GI50: > 100 µM (inactive)
UACC-257
  GI50: > 100 µM (inactive)
HOP-62
  GI50: > 100 µM (inactive)
LOX IMVI
  GI50: > 100 µM (inactive)
HCT-116
  GI50: > 100 µM (inactive)
ACHN
  GI50: > 100 µM (inactive)
T47D
  GI50: > 100 µM (inactive)
OVCAR-3
  GI50: > 100 µM (inactive)
NCI-H23
  GI50: > 100 µM (inactive)
RPMI-8226
  GI50: > 100 µM (inactive)
K562
  GI50: > 100 µM (inactive)
SF-295
  GI50: > 100 µM (inactive)
HT-29
  GI50: > 100 µM (inactive)
RXF 393
  GI50: > 100 µM (inactive)
NCI-H522
  GI50: > 100 µM (inactive)
HL-60
  GI50: > 100 µM (inactive)
SK-MEL-28
  GI50: > 100 µM (inactive)
SN12C
  GI50: > 100 µM (inactive)
786-0
  GI50: > 100 µM (inactive)
MDA-N
  GI50: > 100 µM (inactive)
A498
  GI50: > 100 µM (inactive)
EKVX
  GI50: > 100 µM (inactive)
NCI/ADR-RES
  GI50: > 100 µM (inactive)
COLO 205
  GI50: > 100 µM (inactive)
MOLT-4
  GI50: > 100 µM (inactive)
KM12
  GI50: > 100 µM (inactive)
Malme-3M
  GI50: > 100 µM (inactive)
PC-3
  GI50: > 100 µM (inactive)
TK-10
  GI50: > 100 µM (inactive)
MDA-MB-435
  GI50: > 100 µM (inactive)
SK-OV-3
  GI50: > 100 µM (inactive)
IGROV-1
  GI50: > 100 µM (inactive)
HCC 2998
  GI50: > 100 µM (inactive)
SK-MEL-2
  GI50: > 100 µM (inactive)
SNB-19
  GI50: > 100 µM (inactive)
UACC-62
  GI50: > 100 µM (inactive)

## FC(F)(Sc1ccccc1)c1nc2ccccc2o1
MCF7
  GI50: 35.2 µM (inactive)
SF-539
  GI50: 63.8 µM (inactive)
UO-31
  GI50: 49 µM (inactive)
DU-145
  GI50: 67.8 µM (inactive)
SW-620
  GI50: 61.1 µM (inactive)
NCI-H226
  GI50: 46.9 µM (inactive)
HCT-15
  GI50: 22 µM
A549
  GI50: 30.1 µM (inactive)
SK-MEL-5
  GI50: 50 µM (inactive)
CAKI-1
  GI50: > 100 µM (inactive)
BT-549
  GI50: 55.5 µM (inactive)
HOP-92
  GI50: 12.5 µM (inactive)
OVCAR-5
  GI50: 59.7 µM (inactive)
SR
  GI50: 22 µM (inactive)
M14
  GI50: 68.9 µM (inactive)
SF-268
  GI50: > 100 µM (inactive)
OVCAR-8
  GI50: 83.4 µM (inactive)
U-251
  GI50: 21.9 µM (inactive)
NCI-H460
  GI50: 55.5 µM (inactive)
MDA-MB-231
  GI50: > 100 µM (inactive)
OVCAR-4
  GI50: 97.1 µM (inactive)
UACC-257
  GI50: > 100 µM (inactive)
HOP-62
  GI50: > 100 µM (inactive)
HCT-116
  GI50: 28.6 µM (inactive)
ACHN
  GI50: 47.4 µM (inactive)
T47D
  GI50: > 100 µM (inactive)
OVCAR-3
  GI50: 34.4 µM (inactive)
NCI-H23
  GI50: 91 µM (inactive)
RPMI-8226
  GI50: 40.3 µM (inactive)
K562
  GI50: 27 µM (inactive)
SF-295
  GI50: 48.5 µM (inactive)
HT-29
  GI50: 33.6 µM (inactive)
RXF 393
  GI50: 28.5 µM (inactive)
NCI-H522
  GI50: 34.6 µM (inactive)
SK-MEL-28
  GI50: > 100 µM (inactive)
SN12C
  GI50: 74.5 µM (inactive)
786-0
  GI50: 91.6 µM (inactive)
MDA-N
  GI50: 82.6 µM (inactive)
A498
  GI50: 92.7 µM (inactive)
NCI/ADR-RES
  GI50: 18.6 µM (inactive)
COLO 205
  GI50: > 100 µM (inactive)
MOLT-4
  GI50: 13.8 µM (inactive)
KM12
  GI50: 57 µM (inactive)
Malme-3M
  GI50: 51.1 µM (inactive)
PC-3
  GI50: 35.5 µM (inactive)
TK-10
  GI50: 75.2 µM (inactive)
MDA-MB-435
  GI50: 95.3 µM (inactive)
SK-OV-3
  GI50: 20.8 µM (inactive)
CCRF-CEM
  GI50: 19.4 µM (inactive)
IGROV-1
  GI50: > 100 µM (inactive)
HCC 2998
  GI50: 43.3 µM (inactive)
SK-MEL-2
  GI50: 67.8 µM (inactive)
UACC-62
  GI50: 67.8 µM (inactive)

— ChEMBL document CHEMBL1201862, “PubChem BioAssay data set” (2004)
